Tested on: primary cultures of rat hippocampal neurons
Test: In vitro hippocampal spine density
Assay type: cell-based
Conditions: chronic treatment (3 doses of 10^−5M), days 14, 17 and 20; FIG. 1
Excerpt: In Vitro Hippocampal Spine Density
Dendritic spines are a complex, distinct cellular compartment that protrude from neuronal processes, and act as a source of synaptic contact vital for plasticity, signalling and neuronal integration. Hippocampal spine density increases in the rat brain after learning of an associative task, thereby acting as a substrate for the new memories. Drugs that enhance actin reorganisation in dendritic spines, a requirement for stabilisation of memory, have been proposed for the treatment of memory disorders.
Hippocampi from E18 rat pups were dissected into cold Hank's Basic Salt Solution, rinsed three times and incubated in 5 ml of 0.12% w/v trypsin and 40 μg/ml DNAse (Sigma-Aldrich, St. Louis, USA) for 20 minutes at 37° C. Clumped cells were triturated for one minute with a sterile 1 ml pipette. […] Cell density in a 1/10 dilution was measured using a haemocytometer. […]
For immunohistochemical staining of spines, coverslips were removed from plates and washed in PBS, then incubated in PBSX for 15 minutes to permeabilise membranes. […] Spines highlighted by drebrin immunostaining were counted in Image J. Single neurites were identified and all spines along a fifty micron segment were counted. […]

CC(=O)C1=C(C)OC(N)=C(C#N)C1c1ccc(C(=O)O)cc1.N (stereo not shown) [Test Compound 1]
dendritic spine densities: statistically significant increases

Reference: patent publication US11306066B2, “4H-pyran compounds as insulin-regulated aminopeptidase (IRAP) inhibitors” (Monash University, priority 2015, dated 2022)
